Results as given in ChEMBL document CHEMBL4513139, “CO-ADD screening of University of Strathclyde (UK) compounds”.
Where “and” joins values, the source holds several entries; their conditions need not be identical. Identical values can stand only once.

Legend:
Acinetobacter baumannii = assay: microbe, parasite or virus in culture; details: ATCC 19606, 18 h, ASSAY_TEST Inhibition of Bacterial Growth, detection method Absorption (OD600), MEDIA CAMHB, plate type 384well, NBS, CORNING #3640
Description: Antibacterial activity against Acinetobacter baumannii ATCC 19606 (CO-ADD:GN_034); MIC in CAMBH media using NBS plates, by OD600

Staphylococcus aureus [1] = details: ASSAY_TEST Inhibition of Bacterial Growth, detection method Absorption (OD600), MEDIA CAMHB, plate type 384well, NBS, CORNING #3640, time 18 hr
Description: (§1) Antibacterial activity against Staphylococcus aureus MRSA ATCC 43300 (CO-ADD:GP_020); MIC in CAMBH media, using NBS plates, by OD(600)

HEK293 = assay: cells; type: functional, Homo sapiens, ATCC CRL1573; details: ASSAY_TEST Inhibition of Cell Viability, detection method Resazurin, Fluorescence (ex560/em590), MEDIA DMEM with 10% FBS, plate type 384well, TC, CORNING #3712, time 18 hr
Pseudomonas aeruginosa = assay: microbe, parasite or virus in culture; details: ATCC 27853, 18 h, ASSAY_TEST Inhibition of Bacterial Growth, detection method Absorption (OD600), MEDIA CAMHB, plate type 384well, NBS, CORNING #3640
Description: Antibacterial activity against Pseudomonas aeruginosa ATCC 27853 (CO-ADD:GN_042); MIC in CAMBH media using NBS plates, by OD(600)

Candida albicans [2] = assay: microbe, parasite or virus in culture; details: ATCC 90028, ASSAY_TEST Inhibition of Fungal Growth, detection method Absorption (OD530), plate type 384well, NBS, CORNING #3640
Description: (§2) Antifungal activity against Candida albicans ATCC 90028 (CO-ADD:FG_001); MIC in YNB media using NBS plates, by OD630

Klebsiella pneumoniae = assay: microbe, parasite or virus in culture; details: ATCC 700603, 18 h, ASSAY_TEST Inhibition of Bacterial Growth, detection method Absorption (OD600), MEDIA CAMHB, plate type 384well, NBS, CORNING #3640
Description: Antibacterial activity against Klebsiella pneumoniae MDR ATCC 70063 (CO-ADD:GN_003); MIC in CAMBH media using NBS plates, by OD(600)

Candida albicans [3] = details: ASSAY_TEST Inhibition of Fungal Growth; detection method Absorption (OD530); plate type 384well; NBS; CORNING #3640
Description: as §2

Escherichia coli = assay: microbe, parasite or virus in culture; details: ATCC 25922, 18 h, ASSAY_TEST Inhibition of Bacterial Growth, detection method Absorption (OD600), MEDIA CAMHB, plate type 384well, NBS, CORNING #3640
Description: Antibacterial activity against Escherichia coli ATCC 25922 (CO-ADD:GN_001); MIC in CAMBH media using NBS plates, by OD(600)

Staphylococcus aureus [4] = assay: microbe, parasite or virus in culture; details: ATCC 43300, 18 h, ASSAY_TEST Inhibition of Bacterial Growth, detection method Absorption (OD600), MEDIA CAMHB, plate type 384well, NBS, CORNING #3640
Description: as §1

[5] = Homo sapiens, ATCC CRL1573, HEK293, read-out: CC50

Description for Cryptococcus neoformans: Antifungal activity against Cryptococcus neoformans H99 ATCC 208821 (CO-ADD:FG_002); MIC in YNB media using NBS plates, by Resazurin OD(600-570)

For COc1cccc(/C=C/c2ccc(C(=O)Nc3cc(C(=O)Nc4cc(C(=O)NCCC(=N)N)n(C)c4)n(C)c3)cc2)c1.O=C(O)C(F)(F)F, the MIC (Acinetobacter baumannii) was greater than 32 µg/mL, the MIC (Staphylococcus aureus [1]) was 4 µg/mL and the CC50 (HEK293) was 10.1 µg/mL and 10.7 µg/mL. For the same compound, the CC50 (HEK293; [5]) was 15.8 µg/mL, the MIC (Pseudomonas aeruginosa) was greater than 32 µg/mL and the MIC (Candida albicans [2]) was greater than 32 µg/mL. For the same compound, the MIC (Klebsiella pneumoniae) was greater than 32 µg/mL, the MIC (Candida albicans [3]) was 16 µg/mL and 32 µg/mL and the MIC (Escherichia coli) was greater than 32 µg/mL. It also gave an MIC (Staphylococcus aureus [4]) of 8 µg/mL.
With CN(C)CCNC(=O)c1cc(NC(=O)c2cc(NC(=O)c3ccc(/C=C/c4cnc5ccccc5c4)cc3)cn2C)cn1C.O=C(O)C(F)(F)F.O=C(O)C(F)(F)F the MIC (Acinetobacter baumannii) was greater than 32 µg/mL, the MIC (Staphylococcus aureus [1]) was 1 µg/mL and the CC50 (HEK293) was 4.83 µg/mL and 2.72 µg/mL and 6.4 µg/mL. For the same compound, the MIC (Cryptococcus neoformans) was 16 µg/mL, the MIC (Pseudomonas aeruginosa) was greater than 32 µg/mL and the MIC (Candida albicans [2]) was 32 µg/mL. The MIC (Klebsiella pneumoniae) was greater than 32 µg/mL, the MIC (Candida albicans [3]) was 32 µg/mL and >32 µg/mL and the MIC (Escherichia coli) was greater than 32 µg/mL. The MIC (Staphylococcus aureus [4]) was 0.5 µg/mL.
COc1ccc(/C=C/c2ccc(C(=O)Nc3cc(C(=O)Nc4cc(C(=O)NCCN5CCC(O)CC5)n(C)c4)n(C)c3)cn2)cc1.O=C(O)C(F)(F)F.O=C(O)C(F)(F)F gave an MIC (Acinetobacter baumannii) greater than 32 µg/mL, a CC50 (HEK293; [5]) greater than 32 µg/mL and an MIC (Cryptococcus neoformans) greater than 32 µg/mL. For the same compound, the MIC (Pseudomonas aeruginosa) was greater than 32 µg/mL, the MIC (Candida albicans [2]) was greater than 32 µg/mL and the MIC (Klebsiella pneumoniae) was greater than 32 µg/mL. It also gave an MIC (Escherichia coli) greater than 32 µg/mL and an MIC (Staphylococcus aureus [4]) greater than 32 µg/mL.
